In one assay the test system is NCI-H1975. In words: Growth of cancer cells (Cell Titer-Glo viability), NCI-H1975. In kind it is cell-based. As to conditions: Homo sapiens; NCI-H1975 (EGFR L858R/T790M double mutant), 72 hrs. From the text: (§1) By testing the effect of the novel kinase inhibitors on the proliferation of cancer cells, the selectivity of the compounds of the present disclosure in inhibiting the proliferation of cancer cells was further assessed. In this example, human non-small cell lung cancer cell NCI-H1975 (expressing EGFR L858R/T790M double mutant gene), human skin squamous carcinoma cell A431 (expressing wild-type EGFR gene), non-small cell lung cancer NCI-H3255 (expressing EGFR L858R mutant gene), non-small cell lung cancer cell NCI-H3122 (expressing ALK gene), human non-small cell lung cancer cell A549 (expressing wild-type EGFR gene), human non-small cell lung cancer cell NCI-H2122 (expressing wild-type EGFR gene), human non-small cell lung cancer cell NCI-H460 (expressing wild-type EGFR gene), human non-small cell lung cancer cell PC-9 (expressing EGFR delE746_A750 mutant gene), Chinese hamster ovary cell CHO (Cricetulus griseus, hamster, Chinese, ovary), Chinese hamster lung cell CHL, human non-small cell lung cancer cell HCC827 (expressing mutant EGFR del19 gene), human lung adenocarcinoma cell HCC4006 (expressing mutant EGFR del19 gene), human non-small cell lung cancer cell NCI-H2228 (expressing wild-type ALK gene), and mouse primary B cell BaF3 were used, and the above cells were all purchased from ATCC (US). In addition, mouse BaF3-TEL-ALK (stably expressing ALK kinase), mouse BaF3-ALK-F1174L (stably expressing mutant ALK F1174L kinase), mouse BaF3-NPM-ALK (stably expressing ALK kinase), mouse BaF3-TEL-EGFR (stably expressing EGFR kinase), mouse BaF3-TEL-EGFR-T790M (stably expressing EGFR T790M mutant kinase), mouse BaF3-FL-EGFR-Del19 (stably expressing EGFR delE746_A750 mutant kinase), mouse BaF3-TEL-EGFR-L858R (stably expressing EGFR L858R mutant kinase), mouse BaF3-FL-EGFR-T790M-L858R (stably expressing EGFR T790M/L858R mutant kinase), mouse BaF3-TEL-INSR (stably expressing INSR protein), mouse BaF3-TEL-IGF1R (stably expressing IGF1R Protein), mouse BaF3-EML4-ALK (stably expressing EML4-ALK Protein), mouse BaF3-TEL-JAK3 (stably expressing JAK3 kinase protein), mouse BaF3-TEL-CSF1R (stably expressing CSF1R protein), and mouse BaF3-TEL-ALK-F1196M (stably expressing ALK F1196M mutant kinase) were also used in this example. The above cell lines were all established by our laboratory via the following process: kinase proteins or protein domain sequences of human ALK, ALK F1174L, EGFR, EGFR T790M, EGFR delE746_A750, EGFR L858, EGFR T790M/L858R, INSR, IGF1R, EML4-ALK, JAK3, CSF1R, ALK F1196M were amplified respectively by PCR, and were respectively inserted into MSCV-Puro vector (Clontech) with N-terminal TEL fragments and/or NPM fragments and/or TPR fragments; the resultants were stably transfected into mouse BaF3 cells by the means of retrovirus, and the IL-3 growth factors were removed, and eventually the ALK, ALK F1174L, EGFR, EGFR T790M, EGFR delE746_A750, EGFR L858, EGFR T790M/L858R, INSR, IGF1R, EML4-ALK, JAK3, CSF1R, ALK F1196M-transferred protein dependent cell lines were obtained.
(§2) The number of viable cells was determined quantitatively by a microplate reader using Cell Titer-Glo® (Promega, US) chemiluminescence cell viability assay kit.
(In general: In ATP-based viability assays light output follows the ATP content of the culture.)

A further assay deals with PC-9. The assay can be described thus: Growth of cancer cells (Cell Titer-Glo viability), PC-9. Format: cell-based. Particulars: Homo sapiens; PC-9 (EGFR delE746_A750 mutant), 72 hrs.
Excerpt: as §1, §2

The next assay deals with A431. The assay can be described thus: Growth of cancer cells (Cell Titer-Glo viability), A431. In kind it is cell-based. Particulars: Homo sapiens.
Excerpt: as §1, §2

Another assay relates to CHO. The assay can be described thus: Cell growth (Cell Titer-Glo viability), CHO. In kind it is cell-based, Chinese hamster. Particulars: Cricetulus griseus.
Excerpt: as §1, §2

A further assay has as its system CHL. In words: Cell growth (Cell Titer-Glo viability), CHL. In kind it is cell-based, Chinese hamster. Particulars: Cricetulus griseus.
Excerpt: as §1, §2

In the next assay the test system is NCI-H2122. The assay can be described thus: Growth of cancer cells (Cell Titer-Glo viability), NCI-H2122. In kind it is cell-based. As to conditions: Homo sapiens; NCI-H2122 (wild-type EGFR), 72 hrs.
Excerpt: as §1, §2

The subject of another assay is A549. In words: Growth of cancer cells (Cell Titer-Glo viability), A549. In kind it is cell-based. Particulars: Homo sapiens; A549 (wild-type EGFR), 72 hrs.
Excerpt: as §1, §2

Another assay deals with HCC827. The assay can be described thus: Growth of cancer cells (Cell Titer-Glo viability), HCC827. In kind it is cell-based. Particulars: Homo sapiens; HCC827 (mutant EGFR del19), 72 hrs.
Excerpt: as §1, §2

The next assay concerns NCI-H2228. In words: Growth of cancer cells (Cell Titer-Glo viability), NCI-H2228. Format: cell-based. Particulars: Homo sapiens; NCI-H2228 (wild-type ALK), 72 hrs.
Excerpt: as §1, §2

In the next assay the test system is BaF3-ALK-F1174L. The assay can be described thus: Cell growth (Cell Titer-Glo viability), BaF3-ALK-F1174L. In kind it is cell-based. As to conditions: Mus musculus; BaF3-ALK-F1174L (mutant ALK F1174L kinase), 72 hrs.
Excerpt: as §1, §2

The subject of the next assay is BaF3-NPM-ALK. The assay can be described thus: Cell growth (Cell Titer-Glo viability), BaF3-NPM-ALK. Format: cell-based. Particulars: Mus musculus; BaF3-NPM-ALK (stably expressing ALK kinase), 72 hrs.
Excerpt: as §1, §2

The next assay relates to NCI-H3122. In words: Growth of cancer cells (Cell Titer-Glo viability), NCI-H3122. As to conditions: Homo sapiens. Format: cell-based.
Excerpt: as §1, §2

A further assay relates to BaF3. In words: Cell growth (Cell Titer-Glo viability), BaF3. In kind it is cell-based. Particulars: BaF3 mouse primary B cell, 72 hrs.
Excerpt: as §1, §2

The next assay concerns BaF3-TEL-ALK. The assay can be described thus: Cell growth (Cell Titer-Glo viability), BaF3-TEL-ALK. In kind it is cell-based. As to conditions: Mus musculus; BaF3-TEL-ALK (stably expressing ALK kinase), 72 hrs.
Excerpt: as §1, §2

Where [1] appears, read: A-431, A431 (wild-type EGFR), 72 hrs, read-out: GI50.
The mark [2] stands for this setting: CHO Chinese hamster ovary cell, 72 hrs, read-out: GI50.
[3] abbreviates: CHL Chinese hamster lung cell, 72 hrs, read-out: GI50.
Setting [4] is: NCI-H3122 (expressing ALK gene), 72 hrs, read-out: GI50.

The text below walks through data of patent US10350210B2, “EGFR and ALK dual inhibitor” (PRECEDO PHARMACEUTICALS CO., LTD, priority 2015, dated 2019).

SMILES strings stand for the structures. Like-named read-outs stand apart in the source and are kept apart here.

In the case of `C=CC(=O)Nc1cc(Nc2ncc(Cl)c(Nc3ccccc3S(=O)(=O)C(C)C)n2)c(OC)cc1N1CCOCC1` [Compound 7, N-(5-(5-chloro-4-(2-(isopropylsulfonyl)phenylamino)pyrimidin-2-ylamino)-4-methoxy-2-morpholinylphenyl) acrylamide], the 50% growth inhibitory concentration (GI50) in the assay with NCI-H1975 amounted to 1200 nM; in the assay with PC-9, 90 nM; with A431 (setting [1]), 840 nM; in the assay on CHO (setting [2]), 2900 nM; in the assay with CHL (setting [3]), 9100 nM; with NCI-H2122, 1030 nM. The GI50 was 360 nM in the assay with A549; 110 nM in the assay with HCC827; 31 nM with NCI-H2228; 630 nM in the assay with BaF3-ALK-F1174L; 1 nM in the assay on BaF3-NPM-ALK.

As to `C=CC(=O)Nc1cc(Nc2ncc(Cl)c(Nc3ccccc3S(=O)(=O)C(C)C)n2)c(OC)cc1N1CCN(CCOC)CC1` [Compound 13, N-(5-(5-chloro-4-(2-(isopropylsulfonyl)phenylamino)pyrimidin-2-ylamino)-4-methoxy-2-(4-(2-methoxyethyl)piperazin-1-yl)phenyl)acrylamide], the GI50 with NCI-H1975 was determined as 41 nM; in the assay on PC-9 it was 12 nM; in the assay with A431 (setting [1]), 470 nM; with CHO (setting [2]), 470 nM; with CHL (setting [3]), 3700 nM; in the assay on A549, 630 nM. Moreover, the GI50 in the assay on HCC827 was 15 nM; in the assay on NCI-H3122 (setting [4]), less than 0.3 nM; with NCI-H2228 it was 5.9 nM; in the assay with BaF3, 1400 nM; in the assay with BaF3-TEL-ALK, more than 10000 nM; in the assay on BaF3-NPM-ALK, less than 0.3 nM.

With `C=CC(=O)Nc1cc(Nc2ncc(Cl)c(Nc3ccccc3S(=O)(=O)C(C)C)n2)c(OC)cc1N1CCN(CC2CC2)CC1` [Compound 14, N-(5-(5-chloro-4-(2-(isopropylsulfonyl)phenylamino)pyrimidin-2-ylamino)-2-(4-(cyclopropylmethyl)piperazin-1-yl)-4-methoxyphenyl)acrylamide], the GI50 with NCI-H1975 amounted to 100 nM; in the assay on A431 (setting [1]), 350 nM; with CHO (setting [2]) it was 300 nM; with CHL (setting [3]), 2000 nM; with NCI-H2122, 4300 nM; in the assay with A549, 130 nM. The GI50 is 32 nM with HCC827, less than 0.3 nM in the assay on NCI-H3122 (setting [4]), 28 nM in the assay with NCI-H2228 and less than 0.3 nM in the assay on BaF3-NPM-ALK.

With `C=CC(=O)Nc1cc(Nc2ncc(Cl)c(Nc3ccccc3S(=O)(=O)C(C)C)n2)c(OC)cc1N1CCN(C2CCCCC2)CC1` [Compound 15, N-(5-(5-chloro-4-(2-(isopropylsulfonyl)phenylamino)pyrimidin-2-ylamino)-2-(4-cyclohexylpiperazin-1-yl)-4-methoxyphenyl)acrylamide], the GI50 came out at 77 nM with NCI-H1975; 36 nM in the assay on PC-9; 370 nM with A431 (setting [1]); 170 nM in the assay on CHO (setting [2]); 1400 nM in the assay with CHL (setting [3]); 390 nM in the assay with A549. Further, the GI50 in the assay on HCC827 was 38 nM; in the assay on NCI-H3122 (setting [4]), less than 0.3 nM; in the assay with NCI-H2228, 70 nM; with BaF3, 300 nM; with BaF3-TEL-ALK it was 7.5 nM; with BaF3-NPM-ALK, less than 0.3 nM.

Consider `C=CC(=O)Nc1cc(Nc2ncc(Cl)c(Nc3ccccc3S(=O)(=O)C(C)C)n2)c(OC)cc1N1CCN(Cc2ccccc2)CC1` [Compound 16, N-(2-(4-benzylpiperazin-1-yl)-5-(5-chloro-4-(2-(isopropylsulfonyl)phenylamino)pyrimidin-2-ylamino)-4-methoxyphenyl)acrylamide], for which the GI50 was 310 nM in the assay with NCI-H1975; 230 nM with PC-9; 4200 nM in the assay with A431 (setting [1]); 1300 nM with CHO (setting [2]); more than 10000 nM in the assay with CHL (setting [3]); 1100 nM in the assay with NCI-H2122. For the same compound, the GI50 in the assay on A549 was 4500 nM; in the assay on NCI-H3122 (setting [4]) it was 20 nM; with NCI-H2228 it was 66 nM; in the assay on BaF3 it was 4100 nM; in the assay with BaF3-TEL-ALK, 16 nM; in the assay on BaF3-NPM-ALK, 16 nM.

As for `C=CC(=O)Nc1cc(Nc2ncc(Cl)c(Nc3ccccc3S(=O)(=O)C(C)C)n2)c(OC)cc1N1CCN[C@H](C)C1` [Compound 28, (R)—N-(5-(5-chloro-4-(2-(isopropylsulfonyl)phenylamino)pyrimidin-2-ylamino)-4-methoxy-2-(3-methylpiperazin-1-yl)phenyl)acrylamide], the GI50 worked out at 140 nM in the assay on NCI-H1975; 71 nM in the assay with PC-9; 71 nM in the assay with A431 (setting [1]); 1700 nM with CHO (setting [2]); 3300 nM with CHL (setting [3]); 621 nM in the assay on NCI-H2122. In addition, the GI50 in the assay with A549 came out at 480 nM; with HCC827, 64 nM; in the assay with NCI-H2228 it was 31 nM; in the assay on BaF3-ALK-F1174L, 1000 nM; in the assay with BaF3-NPM-ALK, 1 nM.

Consider `C=CC(=O)Nc1cc(Nc2ncc(Cl)c(Nc3ccccc3S(=O)(=O)C(C)C)n2)c(OC)cc1N1CCN[C@@H](C)C1` [Compound 29, (S)—N-(5-(5-chloro-4-(2-(isopropylsulfonyl)phenylamino)pyrimidin-2-ylamino)-4-methoxy-2-(3-methylpiperazin-1-yl)phenyl)acrylamide], for which the GI50 in the assay on NCI-H1975 was found to be 120 nM; in the assay on PC-9, 62 nM; in the assay on A431 (setting [1]) it was 100 nM; in the assay on CHO (setting [2]), 1500 nM; with CHL (setting [3]) it was 3700 nM; with NCI-H2122, 680 nM. Also, the GI50 worked out at 690 nM in the assay with A549; 59 nM in the assay with HCC827; 73 nM in the assay with NCI-H2228; 950 nM in the assay on BaF3-ALK-F1174L; 3 nM in the assay with BaF3-NPM-ALK.

On to `C[C@@H](Oc1cc(-c2cnn(C3CCNCC3)c2)cnc1N)c1c(Cl)ccc(F)c1Cl` [Crizotinib, reference compound], for which the GI50 in the assay on A431 (A-431, 72 h) worked out at 1000 nM; in the assay on CHO (CHO, 72 h), 6400 nM; with CHL (CHL, 72 h) it was 1900 nM; in the assay on NCI-H3122 (NCI-H3122, 72 h), 73 nM.

For orientation: GI50 means the concentration giving 50% growth inhibition.
